A short description of assay [1]: Selectivity ratio of IC50 for alpha1C/alpha2delta/beta1b L-type calcium channel (unknown origin) to IC50 for rat brain […] N-type calcium channel.
Assay [2] in a line: Selectivity ratio of IC50 for alpha1A/alpha2delta/beta1b P/Q-type calcium channel (unknown origin) to IC50 for rat brain […] N-type calcium channel.

`CC(C)(C)c1cc(C(c2ccccc2)N2CCN(C(=O)CC(c3ccccc3)c3ccccc3)CC2)cc(C(C)(C)C)c1O` (configuration not stated): the Ratio IC50 in assay [1] and in assay [2] was over 40 each time.

With `CCOC(=O)C1CN(C(c2ccccc2)c2ccccc2)CCN1C(=O)CC(c1ccccc1)c1ccccc1` (configuration not stated), the Ratio IC50 in assay [1] was 2880; in assay [2], 69.

With `O=C(CC(c1ccccc1)c1ccccc1)N1CCN(C(c2ccccc2)c2ccc(Cl)cc2)CC1` (configuration not stated), the Ratio IC50 in assay [1] is 831; in assay [2], 28.

Consider `O=C(O)C1CN(C(c2ccccc2)c2ccccc2)CCN1C(=O)CC(c1ccccc1)c1ccccc1` (configuration not stated), for which the Ratio IC50 in assay [1] amounted to 103; in assay [2], 9.4.

As for `COc1ccc(C(c2ccc(C(F)(F)F)cc2)N2CCN(C(=O)CC(c3ccccc3)c3ccccc3)CC2)cc1` (configuration not stated), the Ratio IC50 in assay [1] was over 54; in assay [2], 41.

In the case of `O=C(CC(c1ccccc1)c1ccccc1)N1CCN(C(c2ccccc2)c2ccc(C(F)(F)F)cc2)CC1` (configuration not stated), the Ratio IC50 in assay [1] came to 103; in assay [2], 5.1.

These data come from ChEMBL document CHEMBL3880396, “Calcium channel inhibitors comprising benzhydril spaced from piperazine” (2004).
